Results taken from patent publication US5616579A, “Anti-ulcer pyridyloxy derivatives, their preparation and uses” (Sankyo Company, Limited, priority 1992, dated 1997).

Key:
[1] = tested on: guinea pig right atrium; test: Atrial Test in Guinea Pigs (inhibition of histamine-stimulated heart rate, isolated right atrium); conditions: Cavia porcellus; test compound 1 μg/ml; 10^-5 M histamine; heart rate vs control
Procedure: Atrial Test in Guinea Pigs
The guinea pig right atrium in a spontaneous palpitation was excised, suspended in 40 ml of Krebs-Henselite solution, and a tension of 1 g was loaded between the atrium preparation and a transducer. The solution was aerated at a fixed rate at 37° C. 10^-5 M histamine was added, and the heart rate was recorded as control. A test compound was added to a concentration of 1 μg/ml and then, after 3 minutes, 10^-5 M histamine was added, and the heart rate was again recorded. The inhibitory rate (R %) compared to the control group was calculated according to the following equation: […]
A: The heart rate of the control group
B: The heart rate of the group to which the drug was administered

[2] = tested on: gastric acid output; test: Inhibition of Gastric Secretions (Shay's method, pylorus-ligated rats); assay type: in vivo, rat (male SD); conditions: Rattus norvegicus, intraduodenal, 4 hours
Procedure: Inhibition of Gastric Secretions
This test was carried out according to Shay's method [H. Shay: Gastroenterology 5, 43 (1945)] using male SD rats (5 weeks old). The rats were divided into groups, each group containing 5 rats. The animals were fasted for 24 hours before the beginning of the experiment. They were then anesthetized with ether, the abdominal region was opened, and the pylorus was ligated. A test compound suspended in a 0.5% w/v aqueous carboxymethylcellulose (CMC) solution was administered intraduodenally. After 4 hours, the rat was sacrificed by deep anesthesia with ether, and the stomach was excised. The gastric juice was removed, centrifuged for 15 minutes at 2500 rpm, and then 0.1 ml of the supernatant was taken out and titrated until the end point of neutralization with a 0.01N aqueous solution of sodium hydroxide, to determine the total gastric acidity. The amount of gastric acid secreted per hour (μEq/hr) was calculated, and the inhibition rate (R %) to the control group was calculated according to the following equation.
A: The gastric acid output of the control group (μEq/hr)
B: The amount of gastric acid output of the drug administered group (μEq/hr)

[3] = tested on: gastric mucosa; test: HCl-Ethanol-Induced Ulcer Test in Rats; assay type: in vivo, rat (male SD); conditions: dose 50 mg/kg, oral, 60 minutes before HCl-ethanol
Procedure: HCl-Ethanol-Induced Ulcer Test in Rats
Male SD rats (6 to 8 weeks old) were fasted for 24 hours before the beginning of the experiment. Each was then administered orally with 1 ml of a 60% ethanol solution containing 150 mM of hydrogen chloride. After 1 hour, the stomach was excised. Into the stomach was injected 10 ml of a 0.5% formaldehyde solution, and the stomach was fixed for 20 minutes. The injured area (mm^2) occuring on the surface of the gastric mucosa was measured, and the total injured area per rat was regarded as the injury index.
Test compounds and 0.5% CMC, as the control, were orally administered each at a dose of 0.1 ml/100 g, 60 minutes before treatment with the HCl-ethanol solution.
The ulcer formation inhibitory rate (R %) was calculated by the following equation.
A: The injury index of the control group (mm^2)
B: The injury index of the drug administered group (mm^2)

Row | Compound | inhibition at 1 µg/mL [1] [%] | inhibition in vivo at 12.5 mg/kg [2] [%] | inhibition in vivo at 25 mg/kg [2] [%] | % Inhibition (ulcer formation) [3] [%] | inhibition in vivo at 50 mg/kg [2] [%]
1 | O=C(NC/C=C\COc1cc(CN2CCCCC2)ccn1)c1cscn1 [Example 26, N-[4-(4-Piperidinomethyl-2-pyridyloxy) -cis-2-butenyl]thiazole-4-carboxamide] | 80 | – | – | – | –
2 | CCC(=O)OCCSCC(=O)NC/C=C\COc1cc(CN2CCCCC2)ccn1 [Example 7, N-[4-(4-Piperidinomethyl-2-pyridyloxy)-cis-2-butenyl]-2-(2-propionyloxyethylthio)acetamide] | – | 51 | 63 | 61 | –
3 | O=C(CSCCO)NC/C=C\COc1cc(CN2CCCCC2)ccn1 [Example 1, N-[4-(4-piperidinomethyl-2-pyridyloxy)-cis-2-butenyl]-2-(2-hydroxyethylthio)acetamide] | 86 | – | – | – | 63
4 | CC(=O)OCCSCCCC(=O)NC/C=C\COc1cc(CN2CCCCC2)ccn1 [Example 6, N-[4-(4-Piperidinomethyl-2-pyridyloxy)-cis-2-butenyl]-4-(2-acetoxyethylthio)butyramide] | 86 | – | – | – | 73
5 | O=C(NC/C=C\COc1cc(CN2CCCCC2)ccn1)c1cn[nH]c1 [Example 13, N-[4-(4-piperidinomethyl-2-pyridyloxy)-cis-2-butenyl]pyrazole-4-carboxamide] | 84 | – | 62 | 87 | 80
6 | O=C(CCCSc1nc[nH]n1)NC/C=C\COc1cc(CN2CCCCC2)ccn1 [Example 41, N-[4-(4-Piperidinomethyl-2-pyridyloxy)-cis-2-butenyl]-4-(1,2,4-triazol-3-ylthio)butyramide] | 85 | – | 61 | – | 76
7 | O=C(CCCSc1ncccn1)NC/C=C\COc1cc(CN2CCCCC2)ccn1 [Example 34, N-[4-(4-Piperidinomethyl-2-pyridyloxy) -cis-2-butenyl]-4-(2-pyrimidinylthio) butyramide] | 94 | 61 | 86 | 79 | –
8 | O=C(CSCc1ccco1)NC/C=C\COc1cc(CN2CCCCC2)ccn1 [Compound B, reference compound] | 99 | – | – | 97 | -40
9 | Nc1n[nH]cc1C(=O)NC/C=C\COc1cc(CN2CCCCC2)ccn1 [Example 17, 3-Amino-N-[4-(4-piperidinomethyl-2-pyridyloxy) -cis-2-butenyl]pyrazole-4-carboxamide] | 83 | – | 73 | – | 71
10 | CC(C)NC(=O)NC/C=C\COc1cc(CN2CCCCC2)ccn1 [Example 48, N-[4-(4-piperidinomethyl-2-pyridyloxy) -cis-2-butenyl]-N'-isopropylurea] | 81 | – | – | 78 | 71
11 | O=C(CSCCO)NCCCOc1cccc(CN2CCCCC2)c1 [Compound A, reference compound] | 68 | – | – | 39 | -67
12 | CC(=O)OCCSCC(=O)NC/C=C\COc1cc(CN2CCCCC2)ccn1 [Example 2, N-[4-(4-Piperidinomethyl-2-pyridyloxy)-cis-2-butenyl]-2-(2-acetoxyethylthio)acetamide] | 90 | – | – | 100 | 52
13 | O=C(NC/C=C\COc1cc(CN2CCCCC2)ccn1)NC1CCC1 [Example 58, N-Cyclobutyl-N'-[4-(4-piperidinomethyl-2-pyridyloxy) -cis-2-butenyl]urea] | – | – | – | – | 56
14 | Cc1nnc(SCCCC(=O)NC/C=C\COc2cc(CN3CCCCC3)ccn2)o1 [Example 37, N-[4-(4-Piperidinomethyl-2-pyridyloxy)-cis-2-butenyl]-4-(5-methyl-1,3,4-oxadiazol-2-ylthio)butyramide] | 99 | – | – | – | 74
